This note sets out measurements from patent US20130072505A1, “6,9-Disubstituted Purine Derivatives and Their Use for Treating Skin” (priority 2006, published 2013).

Assay type in all cases: cell-based
The subject of data set [1] is Human forskin fibroblasts (cell line BJ). Nature of the data set: in vitro cytotoxic activity, MTT assay. The settings on record: 72 hours; BJ fibroblasts at middle passage. The method, then:
In vitro cytotoxic activity of several of the 6,9-disubstituted purine derivatives of this invention against human diploid fibroblasts was determined by standard MTT assay optimized for 96-well plates. The assay is based on spectrofotometric measurement of the product of metabolic conversion of MTT by mitochondria of living cells.
Human forskin fibroblasts (cell line BJ) at middle passage were maintained in 75 cm^2 plastic tissue culture flasks and cultured in cell culture medium (DMEM with 5 g/l glucose, 2 mM glutamine, 100 U/ml penicillin, 100 μg/ml streptomycin, 10% fetal calf serum, and sodium bicarbonate).
About 5,000 cells were seeded per well of the 96-well plate. After 24 hours the cell culture medium was replaced with the cell culture medium containing a test compound. The test compounds were evaluated at six 2-fold dilutions. The highest concentration used in the present study was usually 200 μM. In the case of compounds with limited solubility in the culture medium the highest concentration was adjusted. Every test compound was examined in five replicates. Cells with the test compounds were incubated for 72 hours at 37° C. in 5% CO2 atmosphere and 100% humidity. At the end of the incubation period, the culture medium was replaced with the cell culture medium containing MTT (0.5 mg/ml) and cells were incubated for another 3 hours. The formazan formed was solubilized by DMSO and absorbance at 570 nm was measured. Ability of the tested compounds to inhibit MTT reducing activity of the cells was calculated as IC=(Acompound exposed well−mean Ablank)/(mean Acontrol well−meanAblank)×100%. IC10, the drug concentration causing 10% decrease in MTT reducing activity, was calculated from the obtained dose response curves.

Another data set concerns human skin fibroblasts. Nature of the data set: short-term studies on cultured human skin fibroblasts (attachment, survival, growth, apoptosis). The method, then:
Several short-term, preliminary studies of the effect of 6-furfurylamino-9-(2-tetrahydropyranyl)purine on cultured human skin fibroblasts cells have been carried out. The initial study involved the addition of 6-furfurylamino-9-(2-tetrahydropyranyl)purine (40 to 400 μM) to human skin fibroblasts cells in a culture. The percentage of attachment of the cells to the surface of the culture flask was not affected after 6 hours of treatment. In the remaining experiments reported in this example, the 6-furfurylamino-9-(2-tetrahydropyranyl)purine was added directly to the culture medium at the same time as the cells were seeded.
A wider range of concentrations (from 0.01 to 500 μM) was tested for determining the effects of 6-furfurylamino-9-(2-tetrahydropyranyl)purine on the survival of cultured human skin fibroblasts after 3 days of treatment.
The effect of 6-furfurylamino-9-(2-tetrahydropyranyl)purine (0 to 400 μM) treatment on short term growth of young human fibroblasts was also evaluated. Cell growth was similar in untreated samples and in samples treated with 40, 80, and 200 μM 6-furfurylamino-9-(2-tetrahydropyranyl)purine. […] Similar experiments were carried out to determine the extent of apoptosis and beta-galactosidase staining in 6-furfurylamino-9-(2-tetrahydropyranyl)purine-treated and untreated cells.
Based on these studies, 6-furfurylamino-9-(2-tetrahydropyranyl)purine appears to be well tolerated by young and senescent human skin fibroblasts and to have positive effects in terms of reversion of actin pattern and morphology of senescent cells to relatively younger characteristics.

For data set [2], the system named is Salmonella typhimurium histidien auxotrophs TA98 and TA100. Nature of the data set: Ames Test. The following applies: 2.5 to 5000 μg/plate; presence and absence of rat liver S9. The method, then: Tests were carried out using DMSO as solvent and dose levels of 6-furfurylamino-9-(2-tetrahydropyranyl)purine at 2.5, 5.0, 15, 50, 500, 1500, and 5000 μg/plate based upon standard protocol and procedures (Ames et al., Mutation Research, 31, 347-364 (1975); Maron et al., Mutation Research, 113, 173-215 (1983)).

Regarding `c1coc(CNc2ncnc3c2ncn3C2CCCCO2)c1` (stereo not drawn) [6-furfurylamino-9-(2-tetrahydropyranyl)purine], the “IC10 (concentration causing 10% decrease in MTT reducing activity)” value in data set [1] is greater than 200 µM. Also, the “toxicity or other negative effects on survival of cultured human skin fibroblasts” value with human skin fibroblasts (0.01 to 500 μM, 3 days of treatment) is listed as “No toxicity or other negative effects were apparent”. Further, the “short term growth of young human fibroblasts vs untreated” value with human skin fibroblasts (40, 80, and 200 μM) was “similar”. Moreover, the “percentage of attachment of the cells to the surface of the culture flask” value with human skin fibroblasts (40 to 400 μM, after 6 hours of treatment) was “not affected”. In addition, the “short term growth of young human fibroblasts” value in the data set on human skin fibroblasts (about 400 μM) is “slight decrease in growth of cells”. The “cell growth and survival” value in the data set with human skin fibroblasts (between 1 and 200 μM, 3 days of treatment) was “slight stimulation of cell growth and survival”. Also, the “apoptosis and beta-galactosidase staining (premature senescence)” value with human skin fibroblasts (various doses (0 to 400 μM)) is listed as “no suggestion of induction of apoptosis or premature senescence”. Besides, in the data set on human skin fibroblasts (young and senescent human skin fibroblasts), the “induction of additional growth or cell division” value is listed as “No significant induction of additional growth or cell division”. For the same compound, the mutagenic responses result in data set [2] is listed as “no positive mutagenic responses”.
